According to EP0485217A2, “Hydantoin derivatives, and their use in preventing and treating diabetic complications and circulatory organ diseases” (priority 1990, dated 1992):
Where two headings read alike, the source gives them in different places. Marks after values point to notes of the source that are not given here.

What was measured:
[1] = test system: left atrium; assay: Extracted heart, left atrium sample (systole force, electrically stimulated); design: species or system Hartley guinea pigs; details: Cavia porcellus, read-out: Systole Forces
From the text: (§1) Stunned by receving a blow on the heads, Hartley guinea pigs (weighing 300-400 g) were fixed on the back regions to extract their hearts. […] This vessel was previously filled with a Krebs-Henseleit solution and the above gaseous mixture continued to be supplied thereto during preparing the sample.
(§2) In order to prepare the sample, the right and left atria were cut out of the ventricular muscule along the atriventricular sulcus from the center of both the right and left auricles.
While a platinum bipolar electrode attached to the above-mentioned micro wire clamp was in contact with the atrium, stimuli were given to it by 1-Hz, 2-msec. and 10-V rectangular waves derived through an electrical stimulator and an isolator to record the movement of said atrium with an FD pickup connected with it through silk thread.

[2] = test system: Extracted Guinea Pigs' Aortae; assay: Relaxation of extracted thoracic aorta contracted by KCl or NE; design: species or system Hartley guinea pigs; details: Cavia porcellus
From the text: Stunned by receiving a blow on the head, Hartley guinea pigs (weighing 300-500 g) were fixed at the back regions, and the thoracic aortae were then extracted to prepare helical samples, each ca. 2 mm in width and ca. 25 mm in length. Each sample was suspended in a Magnus tube under a load of ca. 1 g and connected at the upper end with an FD pickup by means of silk thread to record its isometric tension change on a recorder.
Prior to initiating the experiment, the sample was allowed to stand for 60 to 90 minutes, during which the Krebs-Henseleit solution was replaced by a new one at an interval of 20 to 30 minutes. […] Finally, papaverine was additionally provided to regulate the final concentration to 2 x 10- ^5g/ml, thereby observing and recording what relaxing reaction took place.
The state stabilized by the addition of KCI or NE was defined as a 100% relaxation rate, on the basis of which what reaction took place at each concentration was relatively estimated.

[3] = test system: platelet aggregation; assay: In-vitro inhibition of platelet aggregation in platelet rich plasma; type: cell-based, rat
Experimental: Then, the residues were centrifuged to obtain a supernatant fluid in the form of platelet poor plasma (PPP for short). For measurement, an amount of PRP collected from two to four animals was pooled. The platelet aggregation test was carried out with NBS HEMA TRACER (Model PAT-60 made by Niko Bioscience Co., Ltd.). […] After 1-minute preincubation, 3 µl of the test compound were added and, one minute later, 30 µl of an aggregation inducer (collagen or ADP) were introduced. Added to a control group was the test compound together with 3 µl of dimethyl sulfoxide. Upon the addition of the aggregation inducer, a maximum transmittance change was read to find a platelet aggregation change in %.

[4] = biological target: aldose reductase (Rattus norvegicus, UniProt P07943); assay: Action on aldose reductase inhibition (method of Kador et al.); type: biochemical; details: 50 % inhibition of aldose reductase
From the text: Chem.", Vol. 8, page 81 (1978) to detrermine how much they inhibited aldose reductase.
Note that IC50 is an index to the 50 % inhibition of aldose reductase.

[5] = test system: right atrium; assay: Extracted heart, right atrium sample (heart rate); design: species or system Hartley guinea pigs; details: Cavia porcellus, read-out: Heart Rates
From the text: as §1, §2
The contraction of the sample was recorded on a recorder through an FD pickup simultaneously with counting and recording the beat with an instantaneous cardiograph unit.

[6] = test system: poikilocytes; assay: Ex-vivo amelioration of poikilocytes (filtration under pressure of erythrocyte suspension); type: in vivo; details: rat
Experimental: (§3) Five minutes after the test compound had been intravenously administered to the tail of a rat, blood was gathered from the descending aorta of the rat which was lightly etherized. Added to this blood was citric acid (3.8% sodium citrate) in a volume ratio of 1/10.
Blood gathered with the addition of citric acid was centrifuged at 4°C and 1500 rpm for 10 minutes. The supernatant fluid was discarded. Added to the residues was physiological saline in an amount of about 1.5 times as large, again followed by 10-minute centrifugation at 4°C and 1500 rpm. The supernatant fluid was discarded. One hundred (100) µl of erythrocytes left upon such procedures repeated twice were diluted with physiological saline to prepare 50 ml of a 0.2 % erythrocyte suspension. This suspension was incubated at 37°C for 5 minutes, cooled down to room temperature and examined to find how much the poikilocytes were ameliorated by the filtration-under-pressure procedures described by F. Katsuraya in "Geriatric Medicine", Vol. 20, pp. 151-156 (1982).
To this end, the suspension sample was passed from a continuous feeder through a Millipore membrane having a mean pore size of […] at a rate of 5 ml/min, during which the pressure on the upstream side of the membrane was measured through a pressure transducer with a pressure amplifier and, at the same time, was recorded on a polygraph chart sheet.

[7] = test system: platelet aggregation; assay: Ex-vivo inhibition of platelet aggregation after intravenous administration; type: in vivo, rat; details: inhibition relative to control, blood 5 minutes after dosing; for Collagen (10 μM): inducer collagen
Experimental: The thus treated blood was centrifuged at 1500 rpm for 5 minutes to obtain a supernatant fluid in the form of PRP. The residues were then again centrifuged at 4°C and 3000 rpm for 10 minutes to obtain a supernatant fluid in the form of PPP. […] of PRP were put in a PRP cuvette having a stirrer bar with the transmittance set at 0%, while 300 µl of PPP were put in a PPP cuvette with the transmittance set at 100%. After 1-minute preincubation, 20 µl of an aggregation inducer (collagen or ADP) were introduced.
A control group, to which dimethylacetamide and tartaric acid in a ratio of 2/3 were given in a quantity of 1 ml/kg, was treated as with the test group. Upon the addition of the aggregation inducer, a maximum transmittance change was read to find a platelet aggregation change in %.

[8] = test system: coronary artery bloodstream; assay: Coronary bloodstream of dogs under anesthesia (i.v.); type: in vivo; details: anesthetized dogs, control 8.7±2.1
Experimental: Fully developed, mongrel male and female dogs were each put under anesthesia with sodium pentobarbital and subjected to commissurotomy while artificial respiration was applied to them. The coronary artery bloodstream was determined with an electromagnetic bloodstream probe attached to the ramus circumflexus of the left coronary artery.
Each of the test compounds was administered to the animal through a cannula fixedly inserted into the cephalic vein.

[9] = test system: erythrocytes; assay: Oxygen dissociation of erythrocytes (HEMOX-ANALYZER), ex vivo; type: in vivo, rat; details: 10 mg/kg; control mean 31.08
From the text: as §3
Blood gathered with the addition of heparin was used to determine the oxygen dissociation of the erthro- cytes with HEMOX-ANALYZER.

[10] = 10^-4(M), left atrium, suppression
[11] = 10^-5(M), left atrium, suppression
[12] = 50% relaxation, contraction by KCl 2.5 x 10^-2M, read-out: IC50(M) Contraction by KCl
[13] = 50% relaxation, contraction by norepinephrine 10^-6 g/ml, read-out: IC50(M) Contraction by NE
[14] = rat PRP, aggregation inducer collagen, read-out: IC50 Collagen
[15] = 10^-4(M), right atrium, suppression
[16] = 10^-5(M), right atrium, suppression
[17] = Rattus norvegicus, read-out: IC50 Collagen

IC50 [2, 12] [M] | IC50 [2, 13] [M] | IC50 [3, 14] [µM] | IC50 [4] [µM] | Compound | inhibition at 100 µM [1, 10] [%] | inhibition at 10 µM [1, 11] [%] | inhibition at 100 µM [5, 15] [%] | inhibition at 10 µM [5, 16] [%] | further results
> 0.001 | > 0.001 | 370 | 0.41 | O=C1NC(=O)[C@@]2(C[C@@H](C(=O)N3CCN(CC=Cc4ccccc4)CC3)Oc3ccc(F)cc32)N1 [Compound 3, 4-cinnamyl-1-{(2S,4S)-6-fluoro-2',5'-dioxospiro[chromane-4,4'-imidazolidine]-2-carbonyl}piperazine] | 10 to 20 | 0 | > 20 | 10 to 20 | –
– | – | – | – | CC(C)NCC(O)COc1cccc2ccccc12 (stereo not shown) [Control A, propranolol, reference compound] | – | – | – | – | inhibition at 10 µM [1]: > 20%; inhibition at 100 µM [1]: > 20%; inhibition at 10 µM [5]: > 20%; inhibition at 100 µM [5]: > 20%
– | – | – | – | COc1cc(/C=C/C(=O)N2CCN(CC(=O)N3CCCC3)CC2)cc(OC)c1OC [Cinepazid, reference compound] | – | – | – | – | IC50 ([2]; read-out: IC50(M) Contraction by KCl): 0.002 M; IC50 ([2]; read-out: IC50(M) Contraction by NE): 0.001 M
1.3e-06 | 1e-05 | 630 | 0.31 | O=C1NC(=O)[C@@]2(C[C@@H](C(=O)N3CCC(Cc4ccccc4)CC3)Oc3ccc(F)cc32)N1 [Compound 1] | 10 to 20 | 0 | 0 | 0 | Amelioration in % ([6]; 0.1 mg/kg intravenously): 29.3%; ADP (1 x 10^-6M) ([7]; 1.0 mg/kg intravenously, inducer ADP 1 x 10^-6M): 44* %; Collagen (10 μM) ([7]; 1.0 mg/kg intravenously): 57%; C.B.S. (coronary bloodstream) ([8]; 0.1 mg/kg i.v.): 9.6±6.9
– | – | – | – | COc1ccc2c(c1)c(CC(=O)O)c(C)n2C(=O)c1ccc(Cl)cc1 [Indomethacin, reference compound] | – | – | – | – | Collagen (10 μM) ([7]; 30.0 mg/kg intravenously): 49%; IC50 [3, 17]: 68 µM
0.00012 | 1e-06 | 430 | 0.045 | O=C1NC(=O)[C@@]2(C[C@@H](C(=O)N3CCN(C(c4ccccc4)c4ccccc4)CC3)Oc3ccc(F)cc32)N1 [Compound 2, 4-diphenylmethyl-1-{(2S,4S)-6-fluoro-2,5'-dioxospiro[chromane-4,4'-imidazolidine]-2-carbonyl}piperazine] | 10 to 20 | 0 | > 20 | 10 to 20 | Amelioration in % ([6]; 1.0 mg/kg intravenously): 37.9%; IC50 ([3]; rat PRP, aggregation inducer ADP, read-out: IC50 ADP): 770 µM; C.B.S. (coronary bloodstream) ([8]; 1.0 mg/kg i.v.): 13.8±2.9; P50 in mmHg Mean [9]: 32.58 mmHg
– | – | – | – | CC(C(O)c1ccc(O)cc1)N1CCC(Cc2ccccc2)CC1 (stereo not shown) [B, ifenprodil, reference compound] | 10 to 20 | 0 | > 20 | > 20 | –
– | – | – | – | CC(=O)Oc1ccccc1C(=O)O [Aspirin, reference compound] | – | – | – | – | Collagen (10 μM) ([7]; 30.0 mg/kg intravenously): 77%; IC50 [3, 17]: 210 µM
